Key:
Experiment in all cases: Test C pre/postemergence
Format in all cases: in vivo
[1] = test system: Surinam grass (Brachiaria decumbens); conditions: Urochloa decumbens, pre-emergence, Preemergence, read-out: Plant response rating, Surinam Grass
Summary of the method: (§1)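 Injury scored visually 12–14 days after application on 0–100 scale (100 = complete control), relative to controls. Compounds, formulated with surfactant in non-phytotoxic solvent, applied to soil at planting (pre) or to 1- to 4-leaf plants 2–18 cm tall (post) in greenhouse.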

[2] = test system: cocklebur (Xanthium strumarium); conditions: Xanthium strumarium, pre-emergence, Preemergence, read-out: Plant response rating, Cocklebur
Summary of the method: as §1

[3] = test system: common (oilseed) sunflower (Helianthus annuus); conditions: Helianthus annuus, pre-emergence, Preemergence, read-out: Plant response rating, Sunflower
Summary of the method: as §1

[4] = test system: common ragweed (Ambrosia elatior); conditions: Ambrosia artemisiifolia, pre-emergence, Preemergence, read-out: Plant response rating, Ragweed
Summary of the method: as §1

corn (Zea mays) = conditions: Zea mays, pre-emergence, Preemergence
Summary of the method: as §1

[5] = test system: goosegrass (Eleusine indica); conditions: Eleusine indica, pre-emergence, Preemergence, read-out: Plant response rating, Goosegrass
Summary of the method: as §1

kochia (Kochia scoparia) = conditions: Bassia scoparia, pre-emergence, Preemergence, read-out: Plant response rating, Kochia
Summary of the method: as §1

[6] = test system: lambsquarters (Chenopodium album); conditions: Chenopodium album, pre-emergence, Preemergence, read-out: Plant response rating, Lambsquarters
Summary of the method: as §1

[7] = test system: pigweed (Amaranthus retroflexus); conditions: Amaranthus retroflexus, pre-emergence, Preemergence, read-out: Plant response rating, Pigweed
Summary of the method: as §1

[8] = test system: velvetleaf (Abutilon theophrasti); conditions: Abutilon theophrasti, pre-emergence, Preemergence, read-out: Plant response rating, Velvetleaf
Summary of the method: as §1

[9] = test system: yellow nutsedge (Cyperus esculentus); conditions: Cyperus, pre-emergence, Preemergence, read-out: Plant response rating, Nutsedge, Yellow
Summary of the method: as §1

[10] = 62 g ai/ha, scale 0 to 100, 0 no effect, 100 complete control

Compound `Nc1nc(C2CC2)nc(C=O)c1Br` [Compound 26] has a pest or weed control at 62 g/ha [1, 10] of 0%, a pest or weed control at 125 g/ha ([1]; 125 g ai/ha, scale 0 to 100) of 0% and a pest or weed control at 250 g/ha ([1]; 250 g ai/ha, scale 0 to 100) of 10%. For the same compound, the pest or weed control at 500 g/ha ([1]; 500 g ai/ha, scale 0 to 100) was 10%, the pest or weed control at 62 g/ha [2, 10] was 70% and the pest or weed control at 125 g/ha ([2]; 125 g ai/ha, scale 0 to 100) was 70%. The pest or weed control at 250 g/ha ([2]; 250 g ai/ha, scale 0 to 100) was 90%, the pest or weed control at 500 g/ha ([2]; 500 g ai/ha, scale 0 to 100) was 95% and the pest or weed control at 62 g/ha [3, 10] was 0%. The pest or weed control at 125 g/ha ([3]; 125 g ai/ha, scale 0 to 100) was 20%, the pest or weed control at 250 g/ha ([3]; 250 g ai/ha, scale 0 to 100) was 70% and the pest or weed control at 500 g/ha ([3]; 500 g ai/ha, scale 0 to 100) was 90%. The pest or weed control at 62 g/ha [4, 10] was 0%, the pest or weed control at 125 g/ha ([4]; 125 g ai/ha, scale 0 to 100) was 10% and the pest or weed control at 250 g/ha ([4]; 250 g ai/ha, scale 0 to 100) was 85%. For the same compound, the pest or weed control at 500 g/ha ([4]; 500 g ai/ha, scale 0 to 100) was 90%, the Corn plant response rating (crop injury, 0 = no effect, 100 = complete kill) at 62 g/ha (corn (Zea mays); 62 g ai/ha, scale 0 to 100, 0 no effect, 100 complete control, read-out: Plant response rating, Corn) was 0% and the Corn plant response rating (crop injury, 0 = no effect, 100 = complete kill) at 125 g/ha (corn (Zea mays); 125 g ai/ha, scale 0 to 100, read-out: Plant response rating, Corn) was 0%. For the same compound, the Corn plant response rating (crop injury, 0 = no effect, 100 = complete kill) at 250 g/ha (corn (Zea mays); 250 g ai/ha, scale 0 to 100) was 0%, the Corn plant response rating (crop injury, 0 = no effect, 100 = complete kill) at 500 g/ha (corn (Zea mays); 500 g ai/ha, scale 0 to 100) was 20% and the pest or weed control at 62 g/ha [5, 10] was 0%. The pest or weed control at 125 g/ha ([5]; 125 g ai/ha, scale 0 to 100) was 0%, the pest or weed control at 250 g/ha ([5]; 250 g ai/ha, scale 0 to 100) was 0% and the pest or weed control at 500 g/ha ([5]; 500 g ai/ha, scale 0 to 100) was 0%. For the same compound, the pest or weed control at 62 g/ha (kochia (Kochia scoparia); [10]) was 0%, the pest or weed control at 500 g/ha (kochia (Kochia scoparia); 500 g ai/ha, scale 0 to 100) was 50% and the pest or weed control at 62 g/ha [6, 10] was 10%. The pest or weed control at 500 g/ha ([6]; 500 g ai/ha, scale 0 to 100) was 90%, the pest or weed control at 62 g/ha [7, 10] was 30% and the pest or weed control at 125 g/ha ([7]; 125 g ai/ha, scale 0 to 100) was 100%. For the same compound, the pest or weed control at 250 g/ha ([7]; 250 g ai/ha, scale 0 to 100) was 100%, the pest or weed control at 500 g/ha ([7]; 500 g ai/ha, scale 0 to 100) was 100% and the pest or weed control at 62 g/ha [8, 10] was 0%. For the same compound, the pest or weed control at 125 g/ha ([8]; 125 g ai/ha, scale 0 to 100) was 10%, the pest or weed control at 250 g/ha ([8]; 250 g ai/ha, scale 0 to 100) was 90% and the pest or weed control at 500 g/ha ([8]; 500 g ai/ha, scale 0 to 100) was 90%. The pest or weed control at 62 g/ha [9, 10] was 0%, the pest or weed control at 125 g/ha ([9]; 125 g ai/ha, scale 0 to 100) was 0% and the pest or weed control at 250 g/ha ([9]; 250 g ai/ha, scale 0 to 100) was 0%. For the same compound, the pest or weed control at 500 g/ha ([9]; 500 g ai/ha, scale 0 to 100) was 0%.

Source: patent US8802597B2, “Herbicidal pyrimidines” (E I du Pont de Nemours and Company, priority 2003, dated 2014)
